Experimental data from paper PMC5007978, “A chemical with proven clinical safety rescues Down-syndrome-related phenotypes in through DYRK1A inhibition” (Disease Models & Mechanisms, 2016).

Tests used:
[1] = system: mnb-overexpressing Drosophila; experiment: Embryonic neurological phenotype with pan-neuronal mnb overexpression (elav::synGFP); type: in vivo
Source text: The expression of human Tau in Drosophila retinal tissue (GMR>Tau) produced a small rough eye phenotype (GMR>Tau in Fig. 6A and B), as described previously ([Jackson et al., 2002]). […] Pan-neuronal mnb overexpression (elav::synGFP>mnb) caused severe neurogenic defects in both the central and peripheral nervous system during embryogenesis [elav::synGFP>mnb (DMSO) in Fig. 6C]. […] Moreover, the viability of adult flies with the neuronal overexpression of mnb was examined. Pan-neuronal overexpression of mnb caused high rates of mortality in adult flies (∼70%, Fig. 6D).
Fig. 6. CX-4945 rescues neurological and phenotypic defects in an mnb-overexpressing Drosophila model. (A) The eyes of adult flies overexpressing mnb and/or human Tau under the control of the eye-specific GMR-Gal4 driver, and of control flies bearing only GMR-Gal4. Overexpression of mnb aggravated the eye abnormality induced by Tau overexpression. […] White dashed lines outline the eye contour. (B) The retinal surface areas were measured on multiple samples (n>10) from each genotype, and average eye sizes were presented as normalized percentages of the DMSO-treated GMR-Gal4 control. (C) The brain cortex, primary neuronal cell clusters and axon bundle, as visualized with GFP (green) using UAS-Synaptobrevin-GFP driven by elav-Gal4 at the late embryonic stage 18. […]

[2] = system: mnb-overexpressing Drosophila; experiment: Wing vein (LV5) defect rescue in mnb-overexpressing flies (MS1096-gal4); type: in vivo, Drosophila melanogaster; conditions: larvae fed for 2 weeks

O=C(O)c1ccc2c(c1)nc(Nc1cccc(Cl)c1)c1ccncc12 [CX-4945]
effect on control flies lacking mnb overexpression ([1]; 100 nM, elav::synGFP>control): little noticeable effect | neurogenic defects of mnb-overexpressing embryos ([1]; parent flies fed 100 nM, elav::synGFP>mnb): restored these neurogenic defects | concentration giving apparent rescue of wing (LV5) defect [2]: 10 to 100 nM
